Experimental findings from ChEMBL document CHEMBL1150895, “Spongiacidins A-D, new bromopyrrole alkaloids from hymeniacidon sponge” (J Nat Prod, 1998) are described below.

A value given as a limit tells only on which side of the number the result lay.

Assay [1] concerns the target Receptor tyrosine-protein kinase erbB-2 (Homo sapiens, UniProt P04626). Put plainly: Inhibition of c-erbB-2.
Assay [2] has as its target Cyclin-dependent kinase 4 (Homo sapiens, UniProt P11802). Nature of the assay: Inhibition of CDK4.

Chain of Cyclin-dependent kinase 4 (P11802 whole entry): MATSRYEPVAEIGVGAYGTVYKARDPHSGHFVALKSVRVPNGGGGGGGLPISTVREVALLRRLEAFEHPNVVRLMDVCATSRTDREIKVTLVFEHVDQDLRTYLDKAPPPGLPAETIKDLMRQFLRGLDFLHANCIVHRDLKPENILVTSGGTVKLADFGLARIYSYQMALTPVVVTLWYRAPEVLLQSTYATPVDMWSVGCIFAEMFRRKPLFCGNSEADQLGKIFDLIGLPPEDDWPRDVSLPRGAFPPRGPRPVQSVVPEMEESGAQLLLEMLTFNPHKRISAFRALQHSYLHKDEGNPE
Chain of Receptor tyrosine-protein kinase erbB-2 (P04626 whole entry): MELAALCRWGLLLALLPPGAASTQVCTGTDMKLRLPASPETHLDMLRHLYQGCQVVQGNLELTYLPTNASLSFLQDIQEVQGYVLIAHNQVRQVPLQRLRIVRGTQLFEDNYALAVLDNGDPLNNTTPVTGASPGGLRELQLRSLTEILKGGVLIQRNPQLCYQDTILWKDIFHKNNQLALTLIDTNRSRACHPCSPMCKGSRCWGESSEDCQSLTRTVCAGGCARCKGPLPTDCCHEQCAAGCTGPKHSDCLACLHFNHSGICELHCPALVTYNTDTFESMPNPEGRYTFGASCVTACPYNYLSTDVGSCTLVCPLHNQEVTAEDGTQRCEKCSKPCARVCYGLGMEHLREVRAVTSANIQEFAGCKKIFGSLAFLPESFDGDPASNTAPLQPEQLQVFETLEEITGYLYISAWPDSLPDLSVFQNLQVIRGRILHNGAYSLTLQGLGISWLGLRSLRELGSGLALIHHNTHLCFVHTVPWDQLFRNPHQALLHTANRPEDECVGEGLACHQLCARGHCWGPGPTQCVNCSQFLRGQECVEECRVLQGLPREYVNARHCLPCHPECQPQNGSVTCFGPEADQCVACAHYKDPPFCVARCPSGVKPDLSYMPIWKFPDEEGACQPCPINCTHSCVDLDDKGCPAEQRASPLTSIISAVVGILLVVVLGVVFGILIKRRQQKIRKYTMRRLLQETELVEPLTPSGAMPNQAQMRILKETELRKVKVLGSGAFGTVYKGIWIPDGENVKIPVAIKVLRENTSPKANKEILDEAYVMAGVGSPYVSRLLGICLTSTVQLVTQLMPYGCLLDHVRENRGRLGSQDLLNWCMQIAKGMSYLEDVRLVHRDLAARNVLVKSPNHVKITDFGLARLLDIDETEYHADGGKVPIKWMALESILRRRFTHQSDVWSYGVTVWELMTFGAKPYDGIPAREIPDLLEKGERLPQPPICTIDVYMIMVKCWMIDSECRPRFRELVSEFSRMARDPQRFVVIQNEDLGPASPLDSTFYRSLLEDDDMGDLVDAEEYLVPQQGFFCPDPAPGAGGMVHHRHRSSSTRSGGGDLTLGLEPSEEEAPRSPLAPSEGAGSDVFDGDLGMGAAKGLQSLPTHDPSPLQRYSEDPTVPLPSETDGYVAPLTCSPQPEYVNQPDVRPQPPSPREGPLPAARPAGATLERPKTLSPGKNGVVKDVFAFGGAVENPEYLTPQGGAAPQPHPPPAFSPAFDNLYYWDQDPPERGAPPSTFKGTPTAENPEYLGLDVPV

In the case of `O=C1NC(=O)/C(=C2\CCNC(=O)c3[nH]c(Br)cc32)N1` [SPONGIACIDIN D], the IC50 in assay [1] and in assay [2] was over 154 µM in each case.
As to `O=C1NC(=O)/C(=C2\CCNC(=O)c3[nH]ccc32)N1` [SPONGIACIDIN C], the IC50 in assay [1] and in assay [2] was over 203 µM in each case.
